According to patent US20260125647A1, “AGE-MODULATING COMPOUNDS AND METHODS FOR MAKING AGE-MODULATED CELLS” (MEMORIAL SLOAN-KETTERING CANCER CENTER, priority 2023, published 2026):

Assays:
[1] = test system: fetal human dermal fibroblasts (HDF-f); experiment: RNA-seq RNAge validation of age inducers in fetal fibroblasts; type: cell-based; details: 24 h, relative to DMSO; for RNAge score (relative transcriptional age): Alvocidib 10 μM, 5-Iodotubercin 10 μM, Mitoxantrone 1.1 μM
Method: Fibroblast maintenance and culture. Fibroblasts were maintained in DMEM-F12 containing GlutaMAX,15% heat inactivated FBS and 1× Pen/Strep and passaged using Trypsin. For validation of […] aging score by RNA-seq old (GM04204; Coriell) or young (HDF-f; […] Compounds for experimental validation of […]-based score. All validation experiments were performed after 24 h of compound treatment. For rejuvenation experiments in fibroblasts Mocetinostat (10 μM; Selleck […]), Resveratrol (0.37 μM; Selleck […]) and Radicicol (1.1 μM; Tocris 1589), DMSO (1:1000) and EtOH (1:1000; vehicle control for Radicicol) were applied to old primary fibroblasts (Coriell GM4204). Age induction experiments in young fibroblasts (HDF-f; ScienCell #2300) were performed with 5-Iodotubercin (10 μM; Selleck […]), Alvocidib (10 μM; Selleck […]) and Mitoxantrone (1.1 μM; Selleck […]) with DMSO (1:1000) used as a control. Compounds used for age induction experiments in PSC-derived neurons were: […] Selleck […]) with DMSO (1:1000) used as a control. RNA Extraction. Cell were harvested, lysed, and stored in Trizol (Life Technologies) until further processing. For primary frontal cortex or substantia nigra a total of 10 mg of brain tissue from was lysed in Trizol aided by a tissue dounce. For experimental validation […] compounds RNA was extracted by the core using […] Micro Kit (QIAGEN 1071023). In all other cases RNA was extracted using the Zymo Direct-zol RNA Microprep Kit according to the manufacturer's instructions. RNA-seq analysis. Reads were aligned to the hg19 Human transcripts using STAR (version 2.5.21b) using default parameters and resulting bam files were sorted and indexed using samtools. Gene counts were obtained using featureCounts (version 1.4.3) from sorted bam files using uniquely mapped reads. Genes with no expression counts in any sample were discarded. Differential gene expression analysis was performed using DESeq2 R package that normalize gene count data to transcription per million (TPM), and then detect differentially expressed genes (DEG) between Young and Old groups with ([…] score calculation. The aging score is applied on a gene expression test data where two conditions are compared for expression changes in the aging signature, group1 has n samples and group2 has m samples. For each gene in a tissue specific marker set Ĝk, we can calculate t-statistic between two groups based on Welch's two-sample t test as follow: where the normalizing factor Nk is the number of overlapping genes between the test dataset and Ĝk. The aging score, Aging scorek, represents the overall magnitude of expression difference between two sample groups based on the expression trends. This score is calculated using the tissue-specific aging marker set Mk. It indicates the aging difference between the two groups as well as distinguishes which group is older. To mitigate the influence of a small number of markers with large changes gene expression between group1 and group2 of the test data (i.e. large t-score values), we introduced the “Percentage score” as a measure of agreement between the expression trends of the aging markers and the given dataset. The calculation of the Percentage score involves the product of each gene between Tk and Mk: Ai=ti×Li, where i∈Ĝk. A positive Ai indicates a consistent expression change of gene i in both the aging signature and in the comparison between group1 and group2 in the test dataset. Conversely, a negative Ai indicates an opposite expression trend. Therefore, the “Percentage score” is defined as: […]

HDF fibroblasts = experiment: Hallmarks of age by high content microscopy in fibroblasts; type: cell-based, human; details: 24 h
Method: Compounds for experimental validation of L1000-based score. All validation experiments were performed after 24 h of compound treatment. For rejuvenation experiments in fibroblasts Mocetinostat (10 μM; Selleck S1396), Resveratrol (0.37 μM; Selleck S1396) and Radicicol (1.1 μM; Tocris 1589), DMSO (1:1000) and EtOH (1:1000; vehicle control for Radicicol) were applied to old primary fibroblasts (Coriell GM4204). Age induction experiments in young fibroblasts (HDF-f; ScienCell #2300) were performed with 5-Iodotubercin (10 μM; Selleck S8314), Alvocidib (10 μM; Selleck S1230) and Mitoxantrone (1.1 μM; Selleck S2485) with DMSO (1:1000) used as a control. Compounds used for age induction experiments in PSC-derived neurons were: Fludarabine (10 μM; Selleck S1491) Vinorelbine (10 μM; sc-205885) and AGK-2 (0.04 μM; Selleck S7577) with DMSO (1:1000) used as a control.
Assaying Hallmarks of Age by high content microscopy. HDF fibroblasts were plated at a density of 4500/cm^2 and cultured for 48 h before drug treatment. Neurons were plated at a density of 100,000/cm^2 and cultured for 12 days before the application of candidate age inducers. After 24 h of treatment culture wells were washed 2× in PBS then fixed with 4% paraformaldehyde. For immunocytochemistry cells were permeabilized in PBS+0.3% Triton and blocked in 5% normal goat serum. All antibody primary incubations were performed overnight at 4 degrees and secondary antibodies at RT for 1h. Primary antibodies used in this study were: BAG3 (abcam; ab47124), CAV1 (Thermo; MA3-600), H3K9me3 (abcam; ab176916), LAP2 (BD Bioscience; 611000), p21 (CST; 2947), yH2AX (EMD Millipore; 05-636). Immunocytochemistry images were acquired using an Operetta (PerkinElmer, Waltham, MA) microscope and quantified using the harmony high content analysis software. For both fibroblasts and neurons 4 independent batches of cells were assayed in triplicate (n=12). Fluorescence intensity was normalized to DMSO, and ordinary one-way ANOVA used to compare test conditions to the DMSO control (Prism 9.5.1). […]

PSC-derived neurons = experiment: RNA-seq RNAge validation of age inducers in PSC-derived neurons; type: cell-based, human; details: 24 h, relative to DMSO, Vinorelbine 10 μM, AGK-2 0.04 μM
Method: Generation of human cortical neurons. Cortical neurons were generated by directed differentiation of human embryonic stem cells (H9; WA-09) maintained in E8 on vitronectin coated plates. […] After 24 h the E8 medium was replaced with E6 containing SB431542 (10 μM), LDN193189 (100 nM) and XAV939 ([…]). After three days the XAV939 was removed from the differentiation media and cells were cultured for an additional seven days in E6 containing SB431542 (10 μM), LDN193189 (100 nM). The neuroepithelium was maintained for an additional 10 days in neurobasal supplemented with N2 and B27. Media was changed daily throughout the differentiation. At DIV 20 the cultures were dissociated using Accutase to generate a single cell suspension and plated out for subsequent experiments in Neurobasal medium supplemented with B27, L-glutamine, BDNF, CAMP, ascorbic acid and GDNF (neural maintenance media). DAPT was also added to the culture medium from DIV20 to DIV30. Compounds for experimental validation of […]-based score. […] Reads were aligned to the hg19 Human transcripts using STAR (version 2.5.21b) using default parameters and resulting bam files were sorted and indexed using samtools. Gene counts were obtained using featureCounts (version 1.4.3) from sorted bam files using uniquely mapped reads. […] This score is calculated using the tissue-specific aging marker set Mk. […]

[2] = test system: old primary fibroblasts (Coriell GM04204); experiment: RNA-seq RNAge validation of rejuvenating compounds in old primary fibroblasts; type: cell-based, human; details: 0.37 μM, 24 h
Method: Fibroblast maintenance and culture. Fibroblasts were maintained in DMEM-F12 containing GlutaMAX,15% heat inactivated FBS and 1× Pen/Strep and passaged using Trypsin. For validation of […] aging score by RNA-seq old (GM04204; Coriell) or young (HDF-f; […] Compounds for experimental validation of […]-based score. All validation experiments were performed after 24 h of compound treatment. For rejuvenation experiments in fibroblasts Mocetinostat (10 μM; Selleck […]), Resveratrol (0.37 μM; Selleck […]) and Radicicol (1.1 μM; Tocris 1589), DMSO (1:1000) and EtOH (1:1000; vehicle control for Radicicol) were applied to old primary fibroblasts (Coriell GM4204). Age induction experiments in young fibroblasts (HDF-f; ScienCell #2300) were performed with 5-Iodotubercin (10 μM; Selleck […]), Alvocidib (10 μM; Selleck […]) and Mitoxantrone (1.1 μM; Selleck […]) with DMSO (1:1000) used as a control. Compounds used for age induction experiments in PSC-derived neurons were: […] Selleck […]) with DMSO (1:1000) used as a control. RNA Extraction. […] Reads were aligned to the hg19 Human transcripts using STAR (version 2.5.21b) using default parameters and resulting bam files were sorted and indexed using samtools. Gene counts were obtained using featureCounts (version 1.4.3) from sorted bam files using uniquely mapped reads. […] This score is calculated using the tissue-specific aging marker set Mk. […]

| SMILES | pattern of induction of the RNAge subscores [1] | RNAge score (relative transcriptional age) [1] | nuclear area (HDF fibroblasts) | nuclear roundness (HDF fibroblasts) | BAG3 fluorescence intensity (HDF fibroblasts; relative to DMSO) | LAP2 fluorescence intensity (HDF fibroblasts; relative to DMSO) | RNAge score / aging scores across the aging signatures (PSC-derived neurons) | further results |
| --- | --- | --- | --- | --- | --- | --- | --- | --- |
| Nc1ncnc2c1c(I)cn2[C@@H]1O[C@H](CO)[C@@H](O)[C@H]1O [5-iodotubercin] | very similar pattern of induction | increased | increase | loss | decreased | loss |  |  |
| N#C/C(=C\c1ccc(-c2cc(Cl)ccc2Cl)o1)C(=O)Nc1cccc2ncccc12 [AGK-2] |  |  |  |  |  |  | no obvious transcriptional effect or impact |  |
| CN1CC[C@H](c2c(O)cc(O)c3c(=O)cc(-c4ccccc4Cl)oc23)[C@H](O)C1 [Alvocidib] | very similar pattern of induction | increased | increase | loss | decreased | loss |  |  |
| O=C1c2c(O)ccc(O)c2C(=O)c2c(NCCNCCO)ccc(NCCNCCO)c21 [Mitoxantrone] | only showed induced aging in the ‘Pan’ and ‘pF’ aging categories | increased |  | loss | decreased | loss |  | H3K9me3 immunoreactivity (HDF fibroblasts; relative to DMSO): decreased; p21 immunoreactivity (HDF fibroblasts; relative to DMSO): increased; γH2AX immunoreactivity (HDF fibroblasts; relative to DMSO): increased |
| Oc1ccc(C=Cc2cc(O)cc(O)c2)cc1 [Resveratrol] |  |  |  |  |  |  |  | fibroblast aging score bubble size (percent of genes that change in the expected direction) [2]: very small bubble size |
| CCC1=C[C@@H]2CN(C1)Cc1c([nH]c3ccccc13)[C@@](C(=O)OC)(c1cc3c(cc1OC)N(C)[C@H]1[C@@](O)(C(=O)OC)[C@H](OC(C)=O)[C@]4(CC)C=CCN5CC[C@]31[C@@H]54)C2 [Vinorelbine] |  |  |  |  |  |  | only a slight, albeit consistent, induction |  |
